Test results as given in ChEMBL document CHEMBL1149442, “Dual binding mode of a novel series of DHODH inhibitors” (J Med Chem, 2006).
pIC50: −log10 of the molar value.

Target: Dihydroorotate dehydrogenase (quinone), mitochondrial (Homo sapiens, UniProt Q02127)
Experiment: Inhibitory activity against human DHODH

Dihydroorotate dehydrogenase (quinone), mitochondrial, sequence (Q02127 whole entry): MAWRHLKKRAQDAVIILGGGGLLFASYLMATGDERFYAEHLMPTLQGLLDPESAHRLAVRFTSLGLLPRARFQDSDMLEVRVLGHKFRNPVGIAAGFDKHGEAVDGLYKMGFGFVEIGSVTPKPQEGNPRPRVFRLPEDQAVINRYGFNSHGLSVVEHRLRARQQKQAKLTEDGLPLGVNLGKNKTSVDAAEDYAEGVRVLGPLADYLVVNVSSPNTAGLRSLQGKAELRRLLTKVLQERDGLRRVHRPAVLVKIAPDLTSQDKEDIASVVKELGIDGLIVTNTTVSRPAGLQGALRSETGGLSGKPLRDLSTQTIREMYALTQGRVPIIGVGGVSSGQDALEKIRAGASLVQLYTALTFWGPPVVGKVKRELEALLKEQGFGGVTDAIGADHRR

pIC50: 8.70
SMILES: O=C(Nc1c(F)cc(-c2cccc(OC(F)(F)F)c2)cc1F)c1ccsc1C(=O)O
